According to patent US20230202989A1, “COMPOUNDS” (JANSSEN PHARMACEUTICA NV, priority 2020, published 2023):
Where two headings read alike, the source gives them in different places.

Columns and labels:
[1] = system: IL-1β; assay: PBMC assay: inhibition of IL-1β release after LPS stimulation (MSD); assay type: cell-based; conditions: human PBMCs, read-out: IL1β IC50
In short: (§1)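 Cryopreserved human PBMCs (7.5×10^4/well) in RPMI/10% FBS were preincubated with serially diluted compound for 30 min at 37 °C, then stimulated with 100 ng/ml LPS for 6 h. Supernatant IL-1β and TNF measured by MSD. IC50 derived for IL-1β, EC50 for TNF.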

[2] = system: TNF; assay: PBMC assay: TNF cytokine levels after LPS stimulation (MSD); assay type: cell-based; conditions: human PBMCs, 100 ng/ml LPS for 6 hrs
In short: as §1

[3] = Homo sapiens, PBMC, 6 h, 100 ng/ml LPS for 6 hrs, MSD, 96 well plates

SMILES	IC50 ([1]; 100 ng/ml LPS for 6 hrs, MSD, 96 well plates) [nM]	EC50 [2] [nM]	IC50 [1, 3] [nM]	EC50 ([2]; Homo sapiens, PBMC, 6 h) [nM]	IC50 ([1]; Homo sapiens, PBMC, LPS stimulation, 384 well plate) [nM]
CC(C)c1nn(CC(=O)N[C@@H]2CC[C@@H]2O)c(=O)c2ccc(C(F)(F)F)cc12 [Final Cpd X115]	2020	> 20000			
CC(C)c1ccc2c(=O)n(CC(=O)Nc3ccncn3)nc(C(C)C)c2c1 [Final Cpd 35]			170	> 10000	
CCc1nn(CC(=O)Nc2ccncn2)c(=O)c2ccc(C(F)(F)F)cc12 [Final Cpd 9]			580	> 10000	
CC(C)c1nn(CC(=O)Nc2ccc3c(c2)[nH]c(=O)n3C)c(=O)c2ccc(C(F)(F)F)cc12 [Final Cpd X5]			64	> 20000	
CC(C)c1nn(CC(=O)Nc2ccncn2)c(=O)c2ccc(Br)cc12 [Final Cpd 38]			< 25	> 10000	
CC(C)c1nn(CC(=O)Nc2ccc3nncn3c2)c(=O)c2ccc(C(F)(F)F)c(F)c12 [Final Cpd X26]			185	> 20000	
CC(C)c1nn(CC(=O)N[C@@H]2CC[C@@H]2O)c(=O)c2ccc(C(F)(F)F)cc12 [Final Cpd X95]			1100	> 20000	
CCN1CCC[C@@H](NC(=O)Cn2nc(C(C)C)c3cc(C(F)(F)F)ccc3c2=O)C1 [Final Cpd X9]			90	> 20000	
CC(C)c1nn(CC(=O)N[C@H]2CN(C3CC(F)(F)C3)CC[C@H]2O)c(=O)c2ccc(C(F)(F)F)cc12 [Final Cpd X83]			910	12900	
CCN1CCC[C@@H](NC(=O)Cn2nc(C(C)C)c3cc(C(F)(F)F)ccc3c2=O)C1=O (single isomer, unassigned) [Final Cpd X166]			17500	> 20000	
CC(C)c1nn(CC(=O)Nc2ccc3nnc(C(F)(F)F)n3n2)c(=O)c2ccc(C(F)(F)F)cc12 [Final Cpd X87]			916	> 20000	
CC(C)c1nn(CC(=O)Nc2ccc(=O)n(CCN(C)C)n2)c(=O)c2ccc(C(F)(F)F)cc12 [Final Cpd X40]			349	> 20000	
CCc1nn(CC(=O)N[C@H]2C[C@@](C)(O)C2)c(=O)c2ccc(C3CC3)cc12 [Final Cpd 21]			290	> 10000	
CC(C)(F)c1nn(CC(=O)Nc2ccc3nncn3c2)c(=O)c2ccc(C(F)(F)F)cc12 [Final Cpd X136]			3770	> 20000	
COC(C)c1nn(CC(=O)N[C@H]2C[C@@](C)(O)C2)c(=O)c2ccc(C(F)(F)F)cc12 (stereo partly shown) [Final Cpd X107]			1610	> 20000	
CCc1nn(CC(=O)Nc2ccncn2)c(=O)c2ccc(Br)cc12 [Final Cpd 2, 2-(6-bromo-4-ethyl-1-oxo-phthalazin-2-yl)-N-pyrimidin-4-yl-acetamide]			190	> 10000	
CC(C)c1nn(CC(=O)N[C@H]2CC[C@H](O)CC2)c(=O)c2ccc(C(F)(F)F)cc12 [Final Cpd X44]			374	> 20000	
O=C(Cn1nc(C(O)C(F)(F)F)c2cc(C(F)(F)F)ccc2c1=O)Nc1ccc2nncn2c1 (stereo not shown) [Final Cpd X61]			588	> 20000	
CCc1ccc2c(=O)n(CC(=O)Nc3ccncn3)nc(CC)c2c1 [Final Cpd 7]				> 10000	700
CC(C)c1nn(CC(=O)Nc2cc(Cl)c(=O)n(C(F)F)c2)c(=O)c2ccc(C(F)(F)F)cc12 [Final Cpd X120]			2570	> 20000	
CCc1nn(CC(=O)N[C@H]2C[C@@](C)(O)C2)c(=O)c2ccc(Br)cc12 [Final Cpd 18]			30	> 10000	

The remaining lines, values ahead:

IC50 ([1]; 100 ng/ml LPS for 6 hrs, MSD, 96 well plates) [nM]	EC50 [2] [nM]	IC50 [1, 3] [nM]	EC50 ([2]; Homo sapiens, PBMC, 6 h) [nM]	IC50 ([1]; Homo sapiens, PBMC, LPS stimulation, 384 well plate) [nM]	SMILES
		3760	> 20000		CC(C)c1nn(CC(=O)Nc2ccc3nncn3c2)c(=O)c2ccc(C(C)(C)O)cc12 [X-1045]
		1570	> 20000		CC(C)c1nn(CC(=O)N[C@H]2C[C@@](C)(O)C2)c(=O)c2ccc(N(C)C)cc12 [X-1047]
		506	> 20000		COC(C)c1nn(CC(=O)Nc2ccc3nncn3c2)c(=O)c2ccc(Br)cc12 (stereo not shown) [X-1017]
		41	> 20000		CC(C)c1nn(CC(=O)Nc2ccc3nncn3n2)c(=O)c2ccc(Br)cc12 [X-1004]
		346	> 20000		CC(O)c1nn(CC(=O)Nc2ccc3nncn3c2)c(=O)c2ccc(Br)cc12 (stereo not shown) [X-1082]
		183	> 20000		O=C(Cn1nc(C(F)F)c2cc(Br)ccc2c1=O)Nc1ccc2nncn2c1 [X-1019]
		180	1080		CC(C)c1nn(CC(=O)Nc2ccc3nncn3n2)c(=O)c2ccc(C3CCC3)cc12 [X-1012]
		293	15700		CC(C)c1nn(CC(=O)Nc2ccc(=O)n(C)n2)c(=O)c2ccc(C(C)(F)F)cc12 [X-1065]
